# Measured values: publication PMC5363571 (Oncotarget, 2016)
# Where a name gives a salt, the structure may show the parent alone.
# Target: USP7 (Homo sapiens, UniProt Q93009)
# Test: biochemical
# Set-up: Ub-AMC hydrolysis by recombinant USP7 (20 nM), 30 min pre-incubation, fluorescence read-out
# Settings: inhibitor
# Chain of USP7 (Q93009 whole entry): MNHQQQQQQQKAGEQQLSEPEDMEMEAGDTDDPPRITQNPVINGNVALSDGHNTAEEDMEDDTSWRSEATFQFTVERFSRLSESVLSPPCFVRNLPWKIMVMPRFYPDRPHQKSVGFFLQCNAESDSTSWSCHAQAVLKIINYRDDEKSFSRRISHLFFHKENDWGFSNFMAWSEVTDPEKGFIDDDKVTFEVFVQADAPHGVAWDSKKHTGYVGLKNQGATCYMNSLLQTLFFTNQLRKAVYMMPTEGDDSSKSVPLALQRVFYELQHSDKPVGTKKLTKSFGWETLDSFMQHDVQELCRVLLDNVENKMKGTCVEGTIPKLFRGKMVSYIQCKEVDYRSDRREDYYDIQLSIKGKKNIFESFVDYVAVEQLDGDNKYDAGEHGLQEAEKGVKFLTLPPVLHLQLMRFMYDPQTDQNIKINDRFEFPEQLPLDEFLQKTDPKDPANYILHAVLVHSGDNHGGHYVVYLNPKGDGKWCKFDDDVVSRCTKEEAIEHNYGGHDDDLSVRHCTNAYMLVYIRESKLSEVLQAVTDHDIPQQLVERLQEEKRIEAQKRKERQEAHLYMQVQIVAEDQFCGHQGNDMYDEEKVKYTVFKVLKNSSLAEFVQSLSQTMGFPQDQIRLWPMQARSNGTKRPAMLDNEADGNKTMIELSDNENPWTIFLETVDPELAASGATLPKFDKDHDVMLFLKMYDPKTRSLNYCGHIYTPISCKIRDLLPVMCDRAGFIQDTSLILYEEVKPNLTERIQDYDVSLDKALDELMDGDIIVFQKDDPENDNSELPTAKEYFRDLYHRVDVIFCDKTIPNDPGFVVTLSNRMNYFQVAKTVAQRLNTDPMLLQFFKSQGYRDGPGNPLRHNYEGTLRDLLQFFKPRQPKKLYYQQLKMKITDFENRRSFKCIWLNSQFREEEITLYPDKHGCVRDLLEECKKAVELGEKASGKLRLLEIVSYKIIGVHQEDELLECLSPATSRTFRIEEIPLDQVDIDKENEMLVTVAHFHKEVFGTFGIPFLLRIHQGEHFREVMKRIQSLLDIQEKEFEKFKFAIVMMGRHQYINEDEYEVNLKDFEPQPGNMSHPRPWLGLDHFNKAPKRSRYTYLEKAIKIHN
row,Compound,% Inhibition at 50 μM [%]
1,CNC(=O)Oc1ccc2c(c1)[C@]1(C)CCN(C)[C@@H]1N2C [Physostigmine sulfate],<5

# Same assay, conditions: read-out: % Inhibition at 50 μM
row,Compound,inhibition at 50 µM [%]
1,O=C1CC[C@@]2(O)[C@H]3Cc4ccc(O)c5c4[C@@]2(CCN3CC2CC2)[C@H]1O5 [Naltrexone HCl],< 5
2,Oc1ccc2c3c1O[C@H]1c4[nH]c5ccccc5c4C[C@@]4(O)[C@@H](C2)N(CC2CC2)CC[C@]314 [Naltrindole HCl],< 5
3,c1ccc2c(CC3=NCCN3)cccc2c1 [Naphazoline HCl],< 5
4,CCc1nn(CCCN2CCN(c3cccc(Cl)c3)CC2)c(=O)n1CCOc1ccccc1 [Nefazodone],< 5
5,CN(C)C(=O)Oc1cccc([N+](C)(C)C)c1 [Neostigmine Br],< 5
6,O=C(CCNNC(=O)c1ccncc1)NCc1ccccc1 [Nialamide],< 5
7,COC(=O)C1=C(C)NC(C)=C(C(=O)OCCN(C)Cc2ccccc2)C1c1cccc([N+](=O)[O-])c1 (centres unmarked) [Nicardipine],< 5
8,O=C(O)c1cccnc1Nc1cccc(C(F)(F)F)c1 [Niflumic acid],< 5
9,COC(=O)C1=C(C)NC(C)=C(C(=O)OCCCN2CCC(c3ccccc3)(c3ccccc3)CC2)[C@H]1c1cccc([N+](=O)[O-])c1 [Niguldipine HCl],< 5
10,CS(=O)(=O)Nc1ccc([N+](=O)[O-])cc1Oc1ccccc1 [Nimesulide],< 5
11,CNCCC(Oc1ccccc1OC)c1ccccc1 (centres unmarked) [Nisoxetine HCl],< 5
12,NC[C@H](O)c1ccc(O)c(O)c1 [Norepinephrine-(+)-tartrate l (-)],< 5
13,CO[C@@H]1[C@@H](OC(N)=O)[C@@H](O)[C@H](Oc2ccc3c(O)c(NC(=O)c4ccc(O)c(CC=C(C)C)c4)c(=O)oc3c2C)OC1(C)C [Novobiocin Na],< 5
14,CC1(C)CC[C@]2(C(=O)O)CC[C@]3(C)C(=CC[C@@H]4[C@@]5(C)CC[C@H](O)C(C)(C)[C@@H]5CC[C@]43C)[C@@H]2C1 [Oleanolic acid],69.2
15,CCCc1nc(C(C)(C)O)c(C(=O)O)n1Cc1ccc(-c2ccccc2-c2nnn[nH]2)cc1 [Olmesartan],< 5
16,CN(C)CC/C=C1/c2ccccc2COc2ccc(CC(=O)O)cc21 [Olopatadine],< 5
17,C[C@@H]1O[C@@H](O[C@H]2C[C@@H](O)[C@]3(CO)[C@H]4[C@H](O)C[C@]5(C)[C@@H](C6=CC(=O)OC6)CC[C@]5(O)[C@@H]4CC[C@]3(O)C2)[C@H](O)[C@H](O)[C@H]1O [Ouabain],< 5
18,O=C(O)/C=C/c1ccc(Cn2ccnc2)cc1 [Ozagrel],< 5
19,CC(=O)O[C@H]1C[C@@H]2CC[C@@H]3[C@H](CC[C@@]4(C)[C@H]3C[C@H]([N+]3(C)CCCCC3)[C@@H]4OC(C)=O)[C@@]2(C)C[C@@H]1[N+]1(C)CCCCC1 [Pancuronium Br],< 5
20,CC(C)(CO)[C@@H](O)C(=O)NCCC(=O)O [Pantothenic acid],< 5
21,CCCN1C[C@H](CSC)C[C@@H]2c3cccc4[nH]cc(c34)C[C@H]21 [Pergolide mesylate],< 5
22,CC(COc1ccccc1)N(CCCl)Cc1ccccc1 (centres unmarked) [Phenoxybenzamine HCl],< 5
23,Cc1ccc(N(CC2=NCCN2)c2cccc(O)c2)cc1 [Phentolamine HCl],< 5
24,C[C@H](N)[C@H](O)c1ccccc1 [Phenylpropanolamine],< 5
25,O=C1NC(=O)C(c2ccccc2)(c2ccccc2)N1 [Phenytoin],< 5

row,Compound,inhibition at 50 µM [%]
1,COc1ccc(C(=O)NCc2cccnc2)cc1C(=O)NCc1cccnc1 [Picotamide],< 5
2,CC[C@@H]1C(=O)OC[C@@H]1Cc1cncn1C [Pilocarpine HCl],< 5
3,O=c1[nH]c2ccccc2n1C1CCN(CCCC(c2ccc(F)cc2)c2ccc(F)cc2)CC1 [Pimozide],< 5
4,CC(N/C(=N\C#N)Nc1ccncc1)C(C)(C)C (centres unmarked) [Pinacidil],< 5
5,CC(C)NCC(O)COc1cccc2[nH]ccc12 (centres unmarked) [Pindolol],< 5
6,CN1CCN(CC(=O)N2c3ccccc3C(=O)Nc3cccnc32)CC1 [Pirenzepine 2HCl],< 5
7,c1cnc(N2CCN(Cc3ccc4c(c3)OCO4)CC2)nc1 [Piribedil HCl],< 5
8,CN1C(C(=O)Nc2ccccn2)=C(O)c2ccccc2S1(=O)=O [Piroxicam],< 5
9,CO[C@H](C(=O)[C@@H](O)[C@@H](C)O)[C@@H]1Cc2cc3cc(O[C@H]4C[C@@H](O[C@@H]5C[C@@H](O)[C@H](O)[C@@H](C)O5)[C@H](O)[C@@H](C)O4)c(C)c(O)c3c(O)c2C(=O)[C@H]1O[C@H]1C[C@@H](O[C@@H]2C[C@@H](O)[C@@H](O[C@@H]3C[C@](C)(O)[C@H](O)[C@@H](C)O3)[C@@H](C)O2)[C@H](O)[C@@H](C)O1 [Plicamycin],< 5
10,CC1(C)CCC2(C(=O)O)C(O)CC3(C)C(=CCC4C5(C)CC(O)C(O)C(C)(CO)C5CCC43C)C2C1 (centres unmarked) [Polygalacic acid],< 5
11,COc1ccc(C(=O)c2c(C)n(CCN3CCOCC3)c3ccccc23)cc1 [Pravadoline],< 5
12,O=C(C1CCCCC1)N1CC(=O)N2CCc3ccccc3C2C1 (centres unmarked) [Praziquantel],< 5
13,CC(=O)[C@H]1CC[C@H]2[C@@H]3CC=C4C[C@@H](O)CC[C@]4(C)[C@H]3CC[C@]12C [Pregnenolone],< 5
14,COc1cc(NC(C)CCCN)c2ncccc2c1 (centres unmarked) [Primaquine phosphate],< 5
15,COC(=O)[C@]1(C)CC[C@]2(C)CC[C@]3(C)C4=CC=C5C(=CC(=O)C(O)=C5C)[C@]4(C)CC[C@@]3(C)[C@@H]2C1 [Pristimerin],39.1
16,CCN(CC)CCNC(=O)c1ccc(N)cc1 [Procainamide],< 5
17,CCC(NC(C)C)C(O)c1ccc(O)c2[nH]c(=O)ccc12 (centres unmarked) [Procaterol hcl],< 5
18,CC(CN1c2ccccc2Sc2ccccc21)N(C)C (centres unmarked) [Promethazine HCl],8.9
19,CC(C)NCC(O)c1ccc2ccccc2c1 (centres unmarked) [Pronethalol HCl],8.3
20,CCCNCC(O)COc1ccccc1C(=O)CCc1ccccc1 (centres unmarked) [Propafenone],78.2
21,CC(C)c1cccc(C(C)C)c1O [Propofol],< 5
22,COc1ccc(C[C@H](N)C(=O)N[C@H]2[C@@H](O)[C@H](n3cnc4c(N(C)C)ncnc43)O[C@@H]2CO)cc1 [Puromycin 2HCl],< 5
23,OCCOCCN1CCN(C2=Nc3ccccc3Sc3ccccc32)CC1 [Quetiapine fumarate],< 5
24,CCN(CC)CCCC(C)Nc1c2ccc(Cl)cc2nc2ccc(OC)cc12 (centres unmarked) [Quinacrine 2HCl dihydrate],< 5
25,CCOC(=O)[C@H](CCc1ccccc1)N[C@@H](C)C(=O)N1Cc2ccccc2C[C@H]1C(=O)O [Quinapril HCl],< 5

row,Compound,inhibition at 50 µM [%]
1,C=C[C@H]1CN2CC[C@H]1C[C@H]2[C@H](O)c1ccnc2ccc(OC)cc12 [Quinine],16.9
2,CC(=O)SCC(Cc1ccccc1)C(=O)NCC(=O)OCc1ccccc1 (centres unmarked) [Racecadotril],< 5
3,CCN1CCC[C@H]1CNC(=O)c1c(O)c(Cl)cc(Cl)c1OC [Raclopride l-tartrate s(-)],< 5
4,O=C(c1ccc(OCCN2CCCCC2)cc1)c1c(-c2ccc(O)cc2)sc2cc(O)ccc12 [Raloxifene HCl],< 5
5,CNC(=C[N+](=O)[O-])NCCSCc1ccc(CN(C)C)o1 [Ranitidine HCl],< 5
6,CO[C@H]1C[C@@H]2CC[C@@H](C)[C@@](O)(O2)C(=O)C(=O)N2CCCC[C@H]2C(=O)O[C@H]([C@H](C)C[C@@H]2CC[C@@H](O)[C@H](OC)C2)CC(=O)[C@H](C)/C=C(\C)[C@@H](O)[C@@H](OC)C(=O)[C@H](C)C[C@H](C)/C=C/C=C/C=C/1C [Rapamycin],< 5
7,CC1=C(/C=C/C(C)=C/C=C/C(C)=C/C(=O)O)C(C)(C)CCC1 [Retinoic acid],< 5
8,CCC[S+]([O-])c1ccc2[nH]c(NC(=O)OC)nc2c1 (centres unmarked) [Ricobendazole],< 5
9,CO[C@H]1/C=C/O[C@@]2(C)Oc3c(C)c(O)c4c(O)c(c(/C=N/N5CCN(C)CC5)c(O)c4c3C2=O)NC(=O)/C(C)=C\C=C\[C@H](C)[C@H](O)[C@@H](C)[C@@H](O)[C@@H](C)[C@H](OC(C)=O)[C@@H]1C [Rifampicin],< 5
10,Nc1nc2ccc(OC(F)(F)F)cc2s1 [Riluzole HCl],< 5
11,Cc1nc2n(c(=O)c1CCN1CCC(c3noc4cc(F)ccc34)CC1)CCCC2 [Risperidone],< 5
12,COc1ccc(C2CNC(=O)C2)cc1OC1CCCC1 (centres unmarked) [Rolipram],< 5
13,CN(CCOc1ccc(CC2SC(=O)NC2=O)cc1)c1ccccn1 (centres unmarked) [Rosiglitazone maleate],< 5
14,CC(C)(C)NCC(O)c1ccc(O)c(CO)c1 (centres unmarked) [Salbutamol sulfate],< 5
15,OCc1cc(C(O)CNCCCCCCOCCCCc2ccccc2)ccc1O (centres unmarked) [Salmeterol],< 5
16,CN1[C@@H]2C[C@@H](OC(=O)[C@H](CO)c3ccccc3)C[C@H]1[C@@H]1O[C@@H]12 [Scopolamine HBr],< 5
17,CCCC[N+]1(C)[C@@H]2C[C@@H](OC(=O)[C@H](CO)c3ccccc3)C[C@H]1[C@@H]1O[C@@H]12 (some centres unmarked) [Scopolamine n-butylbromide],< 5
18,Cc1ncc([N+](=O)[O-])n1CC(C)O (centres unmarked) [Secnidazole],< 5
19,CC1(C)CC[C@]2(C(=O)O)CCC3=C([C@@H](CCl)C[C@@H]4[C@@]5(C)C[C@H](O)[C@H](O)[C@@](C)(C(=O)O)[C@@H]5CC[C@@]34C)[C@@H]2C1 [Senegenin],< 5
20,CC(C)CC(N(C)C)C1(c2ccc(Cl)cc2)CCC1 (centres unmarked) [Sibutramine HCl],< 5
21,CN/C(=N\c1ccc(C2=NNC(=O)CC2C)cc1)NC#N (centres unmarked) [Siguazodan],< 5
22,CCC(C)(C)C(=O)O[C@H]1C[C@@H](C)C=C2C=C[C@H](C)[C@H](CC[C@@H]3C[C@@H](O)CC(=O)O3)[C@H]21 [Simvastatin],< 5
23,O=C(O)Cc1ccccc1 [Sodium phenylacetate],< 5
